One data set deals with T1, RORγt (Homo sapiens, UniProt P51449).
T1 construct: […]
T1 sequence (P51449 269-508 limits assumed): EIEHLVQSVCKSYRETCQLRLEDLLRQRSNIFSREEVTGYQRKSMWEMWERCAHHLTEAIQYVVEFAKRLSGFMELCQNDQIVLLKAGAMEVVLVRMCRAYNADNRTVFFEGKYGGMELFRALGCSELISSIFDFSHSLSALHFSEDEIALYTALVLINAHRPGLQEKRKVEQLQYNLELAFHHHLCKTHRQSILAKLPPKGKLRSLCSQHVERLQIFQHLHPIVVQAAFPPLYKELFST
Nature of the data set: Fluorescence resonance energy transfer (FRET) test, inhibitory activity of RORγt. The data set is classed as biochemical. Conditions: FRET, B-RORγt LBD / Biotin-SRC1; read-out: IC50.

Data set [1] is described as follows: Pharmacokinetic evaluation in ICR mice. The format is in vivo. Conditions: mouse, plasma, po; for AUC(0-t) / Cmax / half-life: 5 mg/kg; for bioavailability: p.o. 5 mg/kg vs i.v. 1 mg/kg, read-out: Oral bioavailability (F).
Data set [2] relates to IMQ-induced mouse psoriasis model. Briefly: IMQ-induced mouse psoriasis model, ear weight. The data set is classed as in vivo, c57bl/6 mice.
For data set [3], the system named is inflammatory factor IL-17. Briefly: IMQ-induced mouse psoriasis model, IL-17 in the ear. The data set is classed as in vivo, c57bl/6 mice. Conditions: for Inhibition rate (IL-17 in the ear) / IL-17 Concentration (pg/μg protein): 90 mg/kg; for IL-17 Concentration (pg/μg protein): ear homogenate supernatant, model group 29.78, normal group 0.00; for Effect on the secretion of IL-17 in the ear of mice compared with the model group: P<0.05.

Data set [4] has as its system inflammatory factor IL-17. Nature of the data set: LPS-induced mouse blood inflammatory factor IL-17 model. The data set is classed as in vivo, BALB/c mice.
A short description of data set [5]: Stability in human liver microsomes. The format is in vitro ADME. Conditions: for half-life at 1.5 μM: pH 7.4, 0.5 mg protein/mL, 1.5 μM compound, 37° C., NADPH, read-out: Human Half-life t1/2; for CLint scaled at 1.5 μM: pH 7.4, intrinsic hepatic clearance inferred from microsomal incubation, read-out: Human Clearance rate. For orientation: Microsomes from liver hold many membrane-bound enzymes, among them those of drug oxidation.

A further data set deals with rat liver microsomes. Nature of the data set: Stability in rat liver microsomes. The data set is classed as in vitro ADME. Conditions: 0.5 mg protein/mL, 1.5 μM compound, 37° C., NADPH.
Data set [6] is described as follows: Stability in rat liver microsomes. The format is in vitro ADME. The note with it: rat, liver microsomes, pH 7.4.
The mark [7] stands for this setting: 90 mg/kg, oral gavage, 10 days modeling, model group 28.12, normal group 13.03.
The mark [8] stands for this setting: Table 8, 15 mg/kg, plasma 4 hours after LPS, model group 81.33.

The text below walks through data of patent US20230121086A1, “RORgT INHIBITOR, PREPARATION METHOD THEREOF AND USE THEREOF” (SUNSHINE LAKE PHARMA CO., LTD., priority 2020, published 2023).

Molecules are shown by their SMILES. Marks after values point to notes of the source that are not given here.

A word on the IC50: it is the midpoint of a concentration-inhibition curve. The term AUC(0-t) denotes exposure summed from dosing to a finite time, without extrapolation to infinity. One may read the Cmax as the peak of the concentration-time curve. One may read the bioavailability as dose-corrected exposure relative to a reference, in per cent. Consider `CCS(=O)(=O)c1ccc([C@H](CC#N)NC(=O)c2ccc(N3C[C@@H](Oc4ccc(OC(F)F)cc4)C[C@H]3COC(F)F)cc2)cc1` [Example 22, N-((S)-2-cyano-1-(4-(ethylsulfonyl)phenyl)ethyl)-4-((2S,4S)-2-((difluoromethoxy)methyl)-4-(4-(difluoromethoxy)phenoxy)pyrrolidin-1-yl)benzamide], for which, at RORγt, the IC50 came to 9 nM. Moreover, in data set [1], the AUC(0-t) is 37 µM·h, the Cmax turned out to be 4.8 µM, the half-life was 3.6 h and the bioavailability was 80%. The “Inhibition rate % (ear weight)” value in data set [2] (90 mg/kg, oral gavage) stood at 2%. Further, in data set [2] (setting [7]), the “Average ear weight” value was found to be 28.12 mg. In addition, in data set [3], the “Inhibition rate (IL-17 in the ear)” value stood at 40.08%, the “IL-17 Concentration (pg/μg protein)” value is 17.85 * pg/μg protein and the “Effect on the secretion of IL-17 in the ear of mice compared with the model group” value is listed as “significantly reduce”. The “Effect on LPS-induced mouse blood inflammatory factor IL-17” value in data set [4] is listed as “a certain tendency to inhibit”. In addition, the Inhibition rate % in data set [4] (Table 8, 15 mg/kg) is 10.55%. For the same molecule, the “IL-17” value in data set [4] (setting [8]) was 72.12 pg/mL. In data set [5], the half-life at 1.5 μM worked out at 3.98 h and the CLint scaled at 1.5 μM came out at 7.3 mL/min/kg. Moreover, the “Rat Half-life t1/2 (min)” value in the data set on rat liver microsomes is given as “Not metabolized”.

For `CCS(=O)(=O)c1ccc([C@H](CC#N)NC(=O)c2ccc(N3C[C@@H](Oc4ccc(C(F)(F)F)cc4)C[C@H]3COC(F)F)cc2)cc1` [Example 47, N—((S)-2-cyano-1-(4-(ethylsulfonyl)phenyl)ethyl)-4-((2S,4S)-2-((difluoromethoxy)methyl)-4-(4-(trifluoromethyl)phenoxy)pyrrolidin-1-yl)benzamide], the IC50 at RORγt amounted to 10 nM. In addition, in data set [1], the AUC(0-t) is 23.5 µM·h, the Cmax came to 2.4 µM, the half-life was 11.1 h and the bioavailability was found to be 66%. In data set [2] (90 mg/kg, oral gavage), the “Inhibition rate % (ear weight)” value came to 19%. Moreover, the “Average ear weight (mg)” value in data set [2] (setting [7]) was 25.20* mg. Moreover, the “Effect on the ear weight of mice compared with the model group” value in data set [2] (P<0.05) is on record as “significantly reduce”. For the same molecule, in data set [3], the “Inhibition rate (IL-17 in the ear)” value was 55.38%, the “IL-17 Concentration (pg/μg protein)” value is 13.29 ** pg/μg protein and the “Effect on the secretion of IL-17 in the ear of mice compared with the model group” value is on record as “significantly reduce”. Further, in data set [4], the “Effect on LPS-induced mouse blood inflammatory factor IL-17” value is given as “significantly reduce”. The molecule also registered an Inhibition rate % in data set [4] (Table 6, 15 mg/kg) of 25.22%. The “IL-17 (pg/ml)” value in data set [4] (Table 6, 15 mg/kg, plasma 4 hours after LPS, model group 141.35) is 104.98 * pg/ml. Besides, the Inhibition rate % in data set [4] (Table 7, 30 mg/kg) was found to be 51%. Further, in data set [4] (Table 7, 30 mg/kg, plasma 4 hours after LPS, model group 174.69), the “IL-17 (pg/ml)” value is 83.18 * pg/ml. Further, the Inhibition rate % in data set [4] (Table 8, 15 mg/kg) was determined as 28.21%. Besides, in data set [4] (setting [8]), the “IL-17 (pg/ml)” value is recorded as 56.69 ** pg/ml. In data set [5], the half-life at 1.5 μM was determined as 3.5 h and the CLint scaled at 1.5 μM is 8.3 mL/min/kg. Besides, the half-life at 1.5 μM in data set [6] (0.5 mg protein/mL, 1.5 μM compound, 37° C., NADPH, read-out: Rat Half-life t1/2) amounted to 22.4 h. The CLint scaled at 1.5 μM in data set [6] (intrinsic hepatic clearance inferred from microsomal incubation, read-out: Rat Clearance rate) is 1.9 mL/min/kg.
